These molecules were tested against T1, human acetyl-CoA carboxylase 2 (ACC2) (Homo sapiens, UniProt O00763) (assay: Acetyl-CoA carboxylase enzyme assay (malonyl-CoA formation by LC/MS/MS)). Settings: recombinant human ACC2 (aa 144-2458); read-out: IC50 ACC2.
T1 construct: The cDNA encoding amino acids 144 to 2458 of human acetyl-CoA carboxylase 2; made in house; host or cells: Sf9 insect cells (baculovirus, pFastBac1)
Type: biochemical
How it was run: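 Malonyl-CoA formation was read by LC/MS/MS MRM against a [13C3]-malonyl-CoA internal standard, after acetic acid quench. The enzyme was baculovirus/Sf9-expressed human ACC2 residues 144–2458, given 15 minutes room-temperature compound preincubation in HEPES pH 7.5 buffer with MgCl2, citrate and DTT. Substrate solution held 50 μM acetyl-CoA, 120 μM ATP and 2 mM KHCO3.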

T1 sequence (O00763 144-2458): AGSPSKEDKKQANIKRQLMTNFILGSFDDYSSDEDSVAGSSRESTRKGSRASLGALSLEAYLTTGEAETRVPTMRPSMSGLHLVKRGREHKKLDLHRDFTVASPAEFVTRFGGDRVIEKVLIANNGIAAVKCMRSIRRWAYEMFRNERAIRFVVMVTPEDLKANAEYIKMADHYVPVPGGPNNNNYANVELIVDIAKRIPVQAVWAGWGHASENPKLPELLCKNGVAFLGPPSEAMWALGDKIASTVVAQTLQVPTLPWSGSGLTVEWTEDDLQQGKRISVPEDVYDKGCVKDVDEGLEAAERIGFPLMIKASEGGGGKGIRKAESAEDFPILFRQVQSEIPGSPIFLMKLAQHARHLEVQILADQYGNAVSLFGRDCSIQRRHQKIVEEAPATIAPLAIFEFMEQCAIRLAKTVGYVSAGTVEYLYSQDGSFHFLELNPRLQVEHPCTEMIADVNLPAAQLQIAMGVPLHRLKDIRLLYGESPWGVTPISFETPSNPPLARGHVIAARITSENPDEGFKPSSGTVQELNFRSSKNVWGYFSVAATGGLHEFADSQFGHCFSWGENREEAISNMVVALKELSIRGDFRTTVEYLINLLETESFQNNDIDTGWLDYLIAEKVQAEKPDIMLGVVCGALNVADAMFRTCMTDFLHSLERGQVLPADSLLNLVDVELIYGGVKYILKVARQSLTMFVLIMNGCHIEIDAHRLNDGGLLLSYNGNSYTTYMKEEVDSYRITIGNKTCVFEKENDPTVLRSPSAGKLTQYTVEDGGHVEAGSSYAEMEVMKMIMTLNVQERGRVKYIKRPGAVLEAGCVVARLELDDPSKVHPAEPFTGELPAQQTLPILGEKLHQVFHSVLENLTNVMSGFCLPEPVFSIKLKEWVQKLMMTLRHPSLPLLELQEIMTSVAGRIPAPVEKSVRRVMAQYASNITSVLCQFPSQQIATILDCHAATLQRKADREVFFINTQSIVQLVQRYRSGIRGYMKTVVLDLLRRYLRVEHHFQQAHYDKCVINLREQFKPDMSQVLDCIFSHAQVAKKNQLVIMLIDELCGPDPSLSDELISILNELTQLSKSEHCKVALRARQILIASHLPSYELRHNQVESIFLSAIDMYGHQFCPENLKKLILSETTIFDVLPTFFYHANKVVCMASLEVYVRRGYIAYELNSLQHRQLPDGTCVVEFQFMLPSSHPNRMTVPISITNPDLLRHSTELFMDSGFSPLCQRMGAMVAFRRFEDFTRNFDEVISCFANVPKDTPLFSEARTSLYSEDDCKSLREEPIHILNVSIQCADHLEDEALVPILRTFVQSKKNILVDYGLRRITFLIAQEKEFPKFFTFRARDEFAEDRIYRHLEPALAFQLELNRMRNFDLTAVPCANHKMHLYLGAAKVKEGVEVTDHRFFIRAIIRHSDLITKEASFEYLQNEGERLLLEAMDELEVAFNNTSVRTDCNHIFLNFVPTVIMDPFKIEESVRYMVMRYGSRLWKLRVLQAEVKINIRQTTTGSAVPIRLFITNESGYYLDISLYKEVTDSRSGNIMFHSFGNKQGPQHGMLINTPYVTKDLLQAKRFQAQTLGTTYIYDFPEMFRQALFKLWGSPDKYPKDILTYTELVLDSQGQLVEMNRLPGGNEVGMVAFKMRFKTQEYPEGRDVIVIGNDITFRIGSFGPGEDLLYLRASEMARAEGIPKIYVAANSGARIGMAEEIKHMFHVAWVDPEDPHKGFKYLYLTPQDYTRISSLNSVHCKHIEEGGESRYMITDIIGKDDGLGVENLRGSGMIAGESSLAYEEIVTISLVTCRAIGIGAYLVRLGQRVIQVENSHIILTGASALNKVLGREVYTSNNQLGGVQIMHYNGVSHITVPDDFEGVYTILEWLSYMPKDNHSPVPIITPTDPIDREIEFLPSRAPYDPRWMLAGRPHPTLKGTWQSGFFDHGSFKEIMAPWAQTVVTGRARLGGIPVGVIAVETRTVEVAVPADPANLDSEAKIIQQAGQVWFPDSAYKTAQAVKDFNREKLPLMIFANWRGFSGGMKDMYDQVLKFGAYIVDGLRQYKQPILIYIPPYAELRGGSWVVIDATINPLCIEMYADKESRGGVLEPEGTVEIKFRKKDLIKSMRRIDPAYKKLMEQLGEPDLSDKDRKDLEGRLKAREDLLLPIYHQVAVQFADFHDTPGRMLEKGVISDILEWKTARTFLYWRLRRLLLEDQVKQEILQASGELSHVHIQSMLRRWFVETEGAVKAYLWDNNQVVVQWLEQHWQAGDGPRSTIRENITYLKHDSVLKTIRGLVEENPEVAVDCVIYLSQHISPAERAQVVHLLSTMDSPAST

Row | IC50 [nM] | SMILES
1 | < 10 | C[C@@H](NC(=O)[C@H]1CC[C@H](NS(=O)(=O)c2ccc3[nH]c(-c4ccc(N5CCN(C)CC5)cc4)nc3c2)CC1)c1ccccc1 [Example 575, (1r,4R)-4-(2-(4-(4-methylpiperazin-1-yl)phenyl)-1H-benzo[d]imidazole-5-sulfonamido)-N-((R)-1-phenylethyl)cyclohexanecarboxamide]
2 | < 10 | C[C@@H](NC(=O)[C@H]1CC[C@H](NS(=O)(=O)c2ccc3[nH]c(-c4ccc(CN5CCN(C)CC5)cc4)nc3c2)CC1)c1ccccc1 [Example 576, (1r,4R)-4-(2-(4-((4-methylpiperazin-1-yl)methyl)phenyl)-1H-benzo[d]imidazole-5-sulfonamido)-N-((R)-1-phenylethyl)cyclohexanecarboxamide]
3 | 15 | C[C@@H](NC(=O)[C@H]1CC[C@H](NS(=O)(=O)c2ccc3[nH]c(-c4ccc(CN5CCOCC5)cc4)nc3c2)CC1)c1ccccc1 [Example 577, (1r,4R)-4-(2-(4-(morpholinomethyl)phenyl)-1H-benzo[d]imidazole-5-surfonamido)-N-((R)-1-phenylethyl)cyclohexanecarboxamide]
4 | 61 | C[C@H](c1ccccc1)N(C)C(=O)[C@H]1CC[C@H](NS(=O)(=O)c2ccc3[nH]c(-c4ccccc4)nc3c2)CC1 [Example 578, (1r,4R)-N-methyl-4-(2-phenyl-1H-benzo[d]imidazole-5-sulfonamido)-N-((R)-1-phenylethyl)cyclohexanecarboxamide]
5 | 10 | O=C(N[C@H](CO)c1ccccc1)[C@H]1CC[C@H](NS(=O)(=O)c2ccc3[nH]c(-c4ccccc4)nc3c2)CC1 [Example 579, (1r,4S)-N-((S)-2-hydroxy-1-phenylethyl)-4-(2-phenyl-1H-benzo[d]imidazole-5-sulfonamido)cyclohexanecarboxamide]
6 | 309 | O=C(NC1(c2ccccc2)CC1)[C@H]1CC[C@H](NS(=O)(=O)c2ccc3[nH]c(-c4ccccc4)nc3c2)CC1 [Example 581, (1r,4r)-4-(2-phenyl-1H-benzo[d]imidazole-5-sulfonamido)-N-(1-phenylcyclopropyl)cyclohexanecarboxamide]
7 | 250 | CC(C)(NC(=O)[C@H]1CC[C@H](NS(=O)(=O)c2ccc3[nH]c(-c4ccccc4)nc3c2)CC1)c1ccccc1 [Example 582, (1r,4r)-4-(2-phenyl-1H-benzo[d]imidazole-5-sulfonamido)-N-(2-phenylpropan-2-yl)cyclohexanecarboxamide]
8 | 55 | CN1CCN(c2ccc(-c3nc4cc(S(=O)(=O)N[C@H]5CC[C@H](C(=O)N6CCOCC6)CC5)ccc4[nH]3)cc2)CC1 [Example 583, 2-(4-(4-methylpiperazin-1-yl)phenyl)-N-((1r,4r)-4-(morpholine-4-carbonyl)cyclohexyl)-1H-benzo[d]imidazole-5-sulfonamide]
9 | 119 | O=C([C@H]1CC[C@H](NS(=O)(=O)c2ccc3[nH]c(Nc4ccccc4)nc3c2)CC1)N1CCOCC1 [Example 584, N-((1r,4r)-4-(morpholine-4-carbonyl)cyclohexyl)-2-(phenylamino)-1H-benzo[d]imidazole-5-sulfonamide]
10 | 781 | CC(C)(C)c1nnc([C@H]2CC[C@H](NS(=O)(=O)c3ccc4[nH]c(-c5ccccc5)nc4c3)CC2)o1 [Example 585, N-((1r,4r)-4-(5-tert-butyl-1,3,4-oxadiazol-2-yl)cyclohexyl)-2-phenyl-1H-benzo[d]imidazole-5-sulfonamide]
11 | 1300 | CC(C)c1nnc([C@H]2CC[C@H](NS(=O)(=O)c3ccc4[nH]c(-c5ccccc5)nc4c3)CC2)o1 [Example 586, N-((1r,4r)-4-(5-isopropyl-1,3,4-oxadiazol-2-yl)cyclohexyl)-2-phenyl-1H-benzo[d]imidazole-5-sulfonamide]
12 | 294 | CC(C)c1nnc([C@H]2CC[C@H](NS(=O)(=O)c3ccc4[nH]c(-c5ccc(N6CCN(C)CC6)cc5)nc4c3)CC2)o1 [Example 587, N-((1r,4r)-4-(5-isopropyl-1,3,4-oxadiazol-2-yl)cyclohexyl)-2-(4-(4-methylpiperazin-1-yl)phenyl)-1H-benzo[d]imidazole-5-sulfonamide]
13 | 267 | CC(C)(C)c1nnc([C@H]2CC[C@H](NS(=O)(=O)c3ccc4[nH]c(-c5ccc(N6CCOCC6)cc5)nc4c3)CC2)o1 [Example 588, N-((1r,4r)-4-(5-tert-butyl-1,3,4-oxadiazol-2-yl)cyclohexyl)-2-(4-morpholinophenyl)-1H-benzo[d]imidazole-5-sulfonamide]
14 | 516 | CC(C)c1nnc([C@H]2CC[C@H](NS(=O)(=O)c3ccc4[nH]c(-c5ccc(N6CCOCC6)cc5)nc4c3)CC2)o1 [Example 589, N-((1r,4r)-4-(5-isopropyl-1,3,4-oxadiazol-2-yl)cyclohexyl)-2-(4-morpholinophenyl)-1H-benzo[d]imidazole-5-sulfonamide]
15 | 430 | CC(C)c1nnc(-c2ccc(NS(=O)(=O)c3ccc4[nH]c(-c5ccc(N6CCN(C)CC6)cc5)nc4c3)cc2)o1 [Example 590, N-(4-(5-isopropyl-1,3,4-oxadiazol-2-yl)phenyl)-2-(4-(4-methylpiperazin-1-yl)phenyl)-1H-benzo[d]imidazole-5-sulfonamide]
16 | 415 | CN1CCN(c2ccc(-c3nc4cc(S(=O)(=O)Nc5ccc(-c6nnc(C(C)(C)C)o6)cc5)ccc4[nH]3)cc2)CC1 [Example 592, N-(4-(5-tert-butyl-1,3,4-oxadiazol-2-yl)phenyl)-2-(4-(4-methylpiperazin-1-yl)phenyl)-1H-benzo[d]imidazole-5-sulfonamide]
17 | 1010 | CC(C)(C)c1nnc(-c2ccc(NS(=O)(=O)c3ccc4[nH]c(-c5ccc(N6CCOCC6)cc5)nc4c3)cc2)o1 [Example 593, N-(4-(5-tert-butyl-1,3,4-oxadiazol-2-yl)phenyl)-2-(4-morpholinophenyl)-1H-benzo[d]imidazole-5-sulfonamide]
18 | 202 | COc1ccc(Nc2nc3cc(S(=O)(=O)N[C@H]4CC[C@H](c5nnc(C(C)C)o5)CC4)ccc3[nH]2)cc1 [Example 594, N-((1r,4r)-4-(5-isopropyl-1,3,4-oxadiazol-2-yl)cyclohexyl)-2-(4-methoxyphenylamino)-1H-benzo[d]imidazole-5-sulfonamide]
19 | 259 | CC(C)c1nnc([C@H]2CC[C@H](NS(=O)(=O)c3ccc4[nH]c(Nc5ccccc5)nc4c3)CC2)o1 [Example 595, N-((1r,4r)-4-(5-isopropyl-1,3,4-oxadiazol-2-yl)cyclohexyl)-2-(phenylamino)-1H-benzo[d]imidazole-5-sulfonamide]
20 | 180 | COc1ccc(Nc2nc3cc(S(=O)(=O)N[C@H]4CC[C@H](c5nnc(C(C)(C)C)o5)CC4)ccc3[nH]2)cc1 [Example 596, N-((1r,4r)-4-(5-tert-butyl-1,3,4-oxadiazol-2-yl)cyclohexyl)-2-(4-methoxyphenylamino)-1H-benzo[d]imidazole-5-sulfonamide]
21 | 162 | CC(C)(C)c1nnc([C@H]2CC[C@H](NS(=O)(=O)c3ccc4[nH]c(Nc5ccccc5)nc4c3)CC2)o1 [Example 597, N-((1r,4r)-4-(5-tert-butyl-1,3,4-oxadiazol-2-yl)cyclohexyl)-2-(phenylamine)-1H-benzo[d]imidazole-5-sulfonamide]
22 | 88 | CC(C)c1nnc([C@H]2CC[C@H](NS(=O)(=O)c3ccc4[nH]c(Nc5ccc(N6CCN(C)CC6)cc5)nc4c3)CC2)o1 [Example 598, N-((1r,4r)-4-(5-isopropyl-1,3,4-oxadiazol-2-yl)cyclohexyl)-2-(4-(4-methylpiperazin-1-yl)phenylamino)-1H-benzo[d]imidazole-5-sulfonamide]
23 | 270 | CC(C)c1nnc([C@H]2CC[C@H](NS(=O)(=O)c3ccc4[nH]c(Nc5ccc(N6CCOCC6)cc5)nc4c3)CC2)o1 [Example 599, N-((1r,4r)-4-(5-isopropyl-1,3,4-oxadiazol-2-yl)cyclohexyl)-2-(4-morpholinophenylamino)-1H-benzo[d]imidazole-5-sulfonamide]
24 | 139 | CC(C)(C)c1nnc([C@H]2CC[C@H](NS(=O)(=O)c3ccc4[nH]c(Nc5ccc(N6CCOCC6)cc5)nc4c3)CC2)o1 [Example 600, N-((1r,4r)-4-(5-tert-butyl-1,3,4-oxadiazol-2-yl)cyclohexyl)-2-(4-morpholinophenylamino)-1H-benzo[d]imidazole-5-sulfonamide]
25 | 539 | CC(C)c1nnc(-c2ccc(NS(=O)(=O)c3ccc4[nH]c(Nc5ccccc5)nc4c3)cc2)o1 [Example 601, N-(4-(5-isopropyl-1,3,4-oxadiazol-2-yl)phenyl)-2-(phenylamino)-1H-benzo[d]imidazole-5-sulfonamide]
26 | 536 | COc1ccc(Nc2nc3cc(S(=O)(=O)Nc4ccc(-c5nnc(C(C)C)o5)cc4)ccc3[nH]2)cc1 [Example 602, N-(4-(5-isopropyl-1,3,4-oxadiazol-2-yl)phenyl)-2-(4-methoxyphenylamino)-1H-benzo[d]imidazole-5-sulfonamide]
27 | 323 | CC(C)c1nnc(-c2ccc(NS(=O)(=O)c3ccc4[nH]c(Nc5ccc(N6CCOCC6)cc5)nc4c3)cc2)o1 [Example 603, N-(4-(5-isopropyl-1,3,4-oxadiazol-2-yl)phenyl)-2-(4-morpholinophenylamino)-1H-benzo[d]imidazole-5-sulfonamide]
28 | 676 | COc1ccc(Nc2nc3cc(S(=O)(=O)Nc4ccc(-c5nnc(C(C)(C)C)o5)cc4)ccc3[nH]2)cc1 [Example 604, N-(4-(5-tert-butyl-1,3,4-oxadiazol-2-yl)phenyl)-2-(4-methoxyphenylamino)-1H-benzo[d]imidazole-5-sulfonamide]

Row | SMILES | IC50 [nM]
29 | C[C@@H](NC(=O)C1CCC(NS(=O)(=O)c2ccc3[nH]c(-c4ccccc4)nc3c2)CC1)c1ccccc1 (stereo partly drawn) [Example 580, (1r,4S)-4-(2-phenyl-1H-benzo[d]imidazole-5-sulfonamido)-N-((S)-1-phenylethyl)cyclohexanecarboxamide] | 1740
